Test results reported in patent US11000033B2, “Ketone or oxime compound, and herbicide” (NISSAN CHEMICAL CORPORATION, priority 2014, dated 2021).

Experiments:
Type in all cases: in vivo
[1] = test system: rice; assay: Test Example 4: effect on crop by soil treatment (symbol b); details: 320 g/ha
Outline: (§1)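 Diluvial soil (sterilized) in boxes; seeds placed spot-wise alongside weed species; ~1.5 cm covering soil. Greenhouse, 25–30° C.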

[2] = test system: Amaranthus retroflexus; assay: Test Example 4: herbicidal effect by soil treatment (symbol N); details: 320 g/ha
Outline: (§2)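 Seeds were sown in sterilized diluvial soil, covered with about 1.5 cm of soil, and the soil surface was sprayed with a water-diluted emulsion of the compound at a predetermined rate. Plants grew in a greenhouse at 25° C. to 30° C.; effects were scored visually 3 weeks after application.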

[3] = test system: directly sowed rice plant; assay: Test Example 3: effect on crop by foliage application, Wagner pot (symbol b); details: application herbicide amount 320 g/ha
Outline: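 Wagner pot (1/10000 are), alluvial soil, submerged 0.1–0.5 cm; sown E. crus-galli var. crus-galli, L. chinensis, C. difformis, rice; greenhouse 25–30 °C.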

[4] = test system: rapeseed; assay: Test Example 5: effect on crop by foliage application, plastic box (symbol g); details: 320 g/ha, 3 weeks after application
Outline: (§3)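 In a plastic box 7 cm deep filled with sterilized diluvial soil, seeds of crops and weeds such as Digitaria ciliaris, Avena fatua and Amaranthus retroflexus are sown in spots and covered with about 1.5 cm of soil before greenhouse growth at 25–30° C.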

[5] = test system: corn; assay: Test Example 4: effect on crop by soil treatment (symbol c); details: 320 g/ha
Outline: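 Sterilized diluvial soil, spot sowing, ~1.5 cm soil cover; greenhouse 25–30° C.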

[6] = test system: rapeseed; assay: Test Example 4: effect on crop by soil treatment (symbol g); details: 320 g/ha
Outline: as §1

[7] = test system: beet; assay: Test Example 5: effect on crop by foliage application, plastic box (symbol f); details: 320 g/ha, 3 weeks after application
Outline: as §3

[8] = test system: Monochoria vaginalis; assay: Test Example 1: herbicidal activity, application before weed generation in submerged conditions (symbol C); details: application herbicide amount 320 g/ha
Outline: (§4)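 Weed control was rated three weeks after treatment on a 0–5 scale, from 5% or lower up to 90% or more. Pre-emergence water-surface application of diluted emulsion at a predetermined rate was made on the day of sowing, in flooded (4 cm water) pots containing rice seedlings, kept at 25–30 °C under glass.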

[9] = test system: Echinochloa crus-galli var. crus-galli; assay: Test Example 4: herbicidal effect by soil treatment (symbol H); details: 320 g/ha
Outline: as §2

[10] = test system: Stellaria media; assay: Test Example 4: herbicidal effect by soil treatment (symbol P); details: 320 g/ha
Outline: as §2

[11] = test system: Setaria viridis; assay: Test Example 5: herbicidal effect by foliage application, plastic box (symbol G); details: 320 g/ha, 3 weeks after application
Outline: (§5)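 Post-emergence spray; diluvial soil (sterilized), ~1.5 cm seed cover; greenhouse 25–30° C; 14-day-old plants; water-diluted emulsion at predetermined dose; visual score at 3 wk post-treatment.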

[12] = test system: Cyperus difformis; assay: Test Example 3: herbicidal effect by foliage application, Wagner pot (symbol E); details: application herbicide amount 320 g/ha
Outline: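 Steps: fill pot with alluvial soil; add water to 0.1–0.5 cm depth; sow weed and rice seed; grow 14 days at 25–30 °C; spray diluted emulsion over the leaves; rate effect after 3 weeks.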

[13] = test system: Echinochloa crus-galli var. crus-galli; assay: Test Example 5: herbicidal effect by foliage application, plastic box (symbol H); details: 320 g/ha, 3 weeks after application
Outline: as §5

[14] = test system: Scirpus juncoides; assay: Test Example 1: herbicidal activity, application before weed generation in submerged conditions (symbol B); details: application herbicide amount 320 g/ha
Outline: as §4

[15] = test system: Amaranthus retroflexus; assay: Test Example 5: herbicidal effect by foliage application, plastic box (symbol N); details: 320 g/ha, 3 weeks after application
Outline: as §5

[16] = test system: Echinochloa oryzacola Vasing.; assay: Test Example 1: herbicidal activity, application before weed generation in submerged conditions (symbol A); details: application herbicide amount 320 g/ha
Outline: as §4

SMILES	b: directly sowed rice plant, effect grade on crop [1]	N: Amaranthus retroflexus, herbicidal effect grade [2]	effect on crop b (directly sowed rice plant), grade 0-5 [3]	g: rapeseed, effect on crop (criteria 0-5) [4]	c: corn, effect grade on crop [5]	g: rapeseed, effect grade on crop [6]	f: beet, effect on crop (criteria 0-5) [7]	Herbicidal effect grade, C: Monochoria vaginalis [8]	H: Echinochloa crus-galli var. crus-galli, herbicidal effect grade [9]	P: Stellaria media, herbicidal effect grade [10]	G: Setaria viridis, herbicidal effect (criteria 0-5) [11]	herbicidal effect on E, grade 0-5 [12]	H: Echinochloa crus-galli var. crus-galli, herbicidal effect (criteria 0-5) [13]	Herbicidal effect grade, B: Scirpus juncoides [14]	N: Amaranthus retroflexus, herbicidal effect (criteria 0-5) [15]	Herbicidal effect grade, A: Echinochloa oryzacola Vasing. [16]
CON=C(C)CC1CC(OC(=O)C#C[Si](C)(C)C)=C(c2c(C)cc(C)cc2C)C1=O (centres unmarked) [1-096]	5 (Herbicidal ratio of 90% or more (almost completely withered))	4 (Herbicidal ratio of 70% or higher and lower than 90%)	5 (Herbicidal ratio of 90% or more (almost completely withered))	4 (Herbicidal ratio of 70% or higher and lower than 90%)	4 (Herbicidal ratio of 70% or higher and lower than 90%)	3 (Herbicidal ratio of 40% or higher and lower than 70%)	0 (Herbicidal ratio of 5% or lower (almost no effect))	0 (Herbicidal ratio of 5% or lower (almost no effect))	4 (Herbicidal ratio of 70% or higher and lower than 90%)	0 (Herbicidal ratio of 5% or lower (almost no effect))	5 (Herbicidal ratio of 90% or more (almost completely withered))	5 (Herbicidal ratio of 90% or more (almost completely withered))	5 (Herbicidal ratio of 90% or more (almost completely withered))	5 (Herbicidal ratio of 90% or more (almost completely withered))	2 (Herbicidal ratio of 20% or higher and lower than 40%)	5 (Herbicidal ratio of 90% or more (almost completely withered))
CON=C(C)CC1CC(OC(=O)C(CSC)=NOC)=C(c2c(C)cc(C)cc2C)C1=O (centres unmarked) [1-098]	5 (Herbicidal ratio of 90% or more (almost completely withered))	4 (Herbicidal ratio of 70% or higher and lower than 90%)	5 (Herbicidal ratio of 90% or more (almost completely withered))	5 (Herbicidal ratio of 90% or more (almost completely withered))	5 (Herbicidal ratio of 90% or more (almost completely withered))	5 (Herbicidal ratio of 90% or more (almost completely withered))	1 (Herbicidal ratio of 5% or higher and lower than 20%)	4 (Herbicidal ratio of 70% or higher and lower than 90%)	5 (Herbicidal ratio of 90% or more (almost completely withered))	0 (Herbicidal ratio of 5% or lower (almost no effect))	5 (Herbicidal ratio of 90% or more (almost completely withered))	5 (Herbicidal ratio of 90% or more (almost completely withered))	5 (Herbicidal ratio of 90% or more (almost completely withered))	5 (Herbicidal ratio of 90% or more (almost completely withered))	0 (Herbicidal ratio of 5% or lower (almost no effect))	5 (Herbicidal ratio of 90% or more (almost completely withered))
CON=C(C)CC1CC(OC(=O)c2nsc(Cl)c2Cl)=C(c2c(C)cc(C)cc2C)C1=O (centres unmarked) [1-099]	5 (Herbicidal ratio of 90% or more (almost completely withered))	3 (Herbicidal ratio of 40% or higher and lower than 70%)	5 (Herbicidal ratio of 90% or more (almost completely withered))	5 (Herbicidal ratio of 90% or more (almost completely withered))	5 (Herbicidal ratio of 90% or more (almost completely withered))	5 (Herbicidal ratio of 90% or more (almost completely withered))	1 (Herbicidal ratio of 5% or higher and lower than 20%)	2 (Herbicidal ratio of 20% or higher and lower than 40%)	5 (Herbicidal ratio of 90% or more (almost completely withered))	0 (Herbicidal ratio of 5% or lower (almost no effect))	5 (Herbicidal ratio of 90% or more (almost completely withered))	5 (Herbicidal ratio of 90% or more (almost completely withered))	5 (Herbicidal ratio of 90% or more (almost completely withered))	4 (Herbicidal ratio of 70% or higher and lower than 90%)	0 (Herbicidal ratio of 5% or lower (almost no effect))	5 (Herbicidal ratio of 90% or more (almost completely withered))
CON=C(C)CC1CC(OC(=O)c2cc(C)on2)=C(c2c(C)cc(C)cc2C)C1=O (centres unmarked) [1-100]	5 (Herbicidal ratio of 90% or more (almost completely withered))	2 (Herbicidal ratio of 20% or higher and lower than 40%)	5 (Herbicidal ratio of 90% or more (almost completely withered))	5 (Herbicidal ratio of 90% or more (almost completely withered))	5 (Herbicidal ratio of 90% or more (almost completely withered))	3 (Herbicidal ratio of 40% or higher and lower than 70%)	0 (Herbicidal ratio of 5% or lower (almost no effect))	3 (Herbicidal ratio of 40% or higher and lower than 70%)	5 (Herbicidal ratio of 90% or more (almost completely withered))	0 (Herbicidal ratio of 5% or lower (almost no effect))	5 (Herbicidal ratio of 90% or more (almost completely withered))	5 (Herbicidal ratio of 90% or more (almost completely withered))	5 (Herbicidal ratio of 90% or more (almost completely withered))	5 (Herbicidal ratio of 90% or more (almost completely withered))	0 (Herbicidal ratio of 5% or lower (almost no effect))	5 (Herbicidal ratio of 90% or more (almost completely withered))
CON=C(C)CC1CC(OC(=O)c2nc(C)sc2C)=C(c2c(C)cc(C)cc2C)C1=O (centres unmarked) [1-101]	5 (Herbicidal ratio of 90% or more (almost completely withered))	3 (Herbicidal ratio of 40% or higher and lower than 70%)	5 (Herbicidal ratio of 90% or more (almost completely withered))	5 (Herbicidal ratio of 90% or more (almost completely withered))	5 (Herbicidal ratio of 90% or more (almost completely withered))	5 (Herbicidal ratio of 90% or more (almost completely withered))	0 (Herbicidal ratio of 5% or lower (almost no effect))	2 (Herbicidal ratio of 20% or higher and lower than 40%)	5 (Herbicidal ratio of 90% or more (almost completely withered))	0 (Herbicidal ratio of 5% or lower (almost no effect))	5 (Herbicidal ratio of 90% or more (almost completely withered))	5 (Herbicidal ratio of 90% or more (almost completely withered))	5 (Herbicidal ratio of 90% or more (almost completely withered))	5 (Herbicidal ratio of 90% or more (almost completely withered))	5 (Herbicidal ratio of 90% or more (almost completely withered))	5 (Herbicidal ratio of 90% or more (almost completely withered))
